Data: patent US4874749A, “4"-Deoxy-4-N-methylamino avermectin Bla/Blb” (Merck & Co., Inc., priority 1987, dated 1989)

Tests used:
Type in all cases: in vivo
tobacco budworm = experiment: LD90 test against tobacco budworm (micrograms/GWT); settings: GWT = Gram Weight of the Test insect
From the text: (§1) For example, tests have been carried out in which the instant compound was compared with avermectin Bla/Blb (avermectin the starting material for the instant compound) and 4"-deoxy-4"-amino avermectin Bla/Blb. […] Expressed another way, 4"-deoxy-4"-amino avermectin Bla/Blb was 60% effective at 0.5 micrograms/GWT against southern armyworm while 4"-deoxy-4"-epi-N-methylamino avermectin Bla/Blb was 90% effective at 0.125 micrograms/GWT against the same parasite.

[1] = tested on: Heliothis virescens larvae; experiment: Foliar ingestion toxicity study against Heliothis virescens larvae
[2] = tested on: Bluegill Sunfish (Lepomis macrochirus); experiment: Acute toxicity to Bluegill Sunfish
Description: The same test procedure was used as described in example 6, except that Bluegill Sunfish were used and that the test vessels were kept in a water bath at 22° C.

[3] = tested on: Spodoptera eridania larvae; experiment: Foliar ingestion toxicity study against Spodoptera eridania larvae
Daphnia magna = experiment: Acute toxicity to Daphnia magna
Description: In one test of the instant compound (see Example 5) and closely related avermectin compounds against Daphnia magna, described as a 48 hour LC50 test, that is, the concentration of compound which is fatal to 50% of Daphnia magna over a 48 hour period, it was observed that avermectin Bla/Blb has an LC50 of 300 ppt (parts per trillion); and 4"-deoxy-4"-amino avermectin Bla/Blb has an LC50 of 600 ppt.
Ten Dahpnia magna (first instar less than 24 hours old) were placed in a 250 ml glass beaker containing 200 ml of an aqueous solution of the test compounds in concentrations from 1.0 to 10 microgram/liter (ppb). The test compounds were dissolved in a small volume of acetone for dilution with water. The solvent control contained 0.010 ml of acetone which is equivalent to the highest test concentration. A control and solvent control was added to the experiment which was conducted in two replicates. All concentrations were observed once at 24 and 48 hours for mortality and abnormal effects such as surfacing, clumping of the daphnids together and daphnids lying on the bottom of the beakers.

Heliothis zea larvae [4] = experiment: Foliar ingestion toxicity against Heliothis zea larvae
[5] = tested on: Heliothis virescens larvae; experiment: Contact toxicity study against Heliothis virescens larvae
[6] = tested on: Spodoptera eridania larvae; experiment: Contact toxicity study against Spodoptera eridania larvae; settings: 96 hours, in microgram per gram body weight (BTI 159)
Description: In a contact toxicity study against Spodoptera eridania larvae 4"-deoxy-4"-epimethylamino avermectin Bla/Blb was 4 times more toxic than 4"-deoxy-4"-epiamino avermectin Bla/Blb as measured at 96 hours in microgram per gram body weight. (BTI 159).

southern armyworm = experiment: LD90 test against southern armyworm (micrograms/GWT); settings: GWT = Gram Weight of the Test insect
From the text: as §1

Heliothis zea larvae [7] = experiment: Contact toxicity study against Heliothis zea larvae; settings: 96 hours
[8] = tested on: Rainbow Trout (Salmo gairdneri); experiment: Acute toxicity to Rainbow Trout, static fish bioassay
Description: The static fish bioassay was conducted in five gallon glass vessels containing 15 liters of soft reconstituted water composed of the following compounds in the amounts stated per liter of deionized water:
This reconstituted water was prepared to yield a total hardness of 40-48 mg/l as CaCO3, a total alkalinity of 20-30 mg/l as CaCO3 and an initial pH of 7.2 to 7.6. The 0-hour measured control water parameters of this dilution water were dissolved oxygen 9.7 mg/l and pH 7.4.
The test vessels were kept in a water bath at 12° C. The test fish were acclimated to the dilution water and test temperature and held without food for 48-96 hours prior to testing.
Based on the results of preliminary testing, six concentrations of the test compound with ten fish per concentration were selected for the definitive bioassay. The definitive test concentrations were obtained by transferring appropriate aliquots of a working standard directly to the test chambers. The working standard was prepared in dimethylformamide (DMF). Also included was a dilution water control and a solvent control chamber.
The fish were added to the test chambers by random assignment within 30 minutes after addition of test material. All test organisms were observed once every 24 hours for mortality and abnormal (sub-lethal) effects. any dead individuals were removed from the test chambers after each 24-hour observation. The LC50 statistic and its 95 percent confidence limits were calculated by employing a computerized standard program.

[9] = 24 hr, nominal concentration 0.056 mg/l
[10] = 24 hr, nominal concentration 0.10 mg/l
[11] = 24 hr, nominal concentration 0.18 mg/l
[12] = 24 hr, nominal concentration 0.32 mg/l
[13] = 24 hr, nominal concentration 0.56 mg/l
[14] = 24 hr, nominal concentration 1.0 mg/l
[15] = 48 hr, nominal concentration 0.056 mg/l
[16] = 48 hr, nominal concentration 0.10 mg/l
[17] = 48 hr, nominal concentration 0.18 mg/l
[18] = 48 hr, nominal concentration 0.32 mg/l
[19] = 48 hr, nominal concentration 0.56 mg/l
[20] = 48 hr, nominal concentration 1.0 mg/l
[21] = 96 hr, nominal concentration 0.056 mg/l
[22] = 96 hr, nominal concentration 0.10 mg/l
[23] = 96 hr, nominal concentration 0.18 mg/l
[24] = 96 hr, nominal concentration 0.32 mg/l
[25] = 96 hr, nominal concentration 0.56 mg/l
[26] = 96 hr, nominal concentration 1.0 mg/l
[27] = 48 hour, ppt = parts per trillion
[28] = 0.04 microgram/gram body weight

4"-Deoxy-4"-epi-methylaminoavermectin Bla/Blb
LD90 (Lethal Dose for 90% of the insects) (tobacco budworm): 0.4 micrograms/GWT
LC90 [1]: 0.003 ppm
times more toxic than avermectin Bla/Blb (LC90) [1]: 43 times
LC50 ([2]; 24 hours): 0.75 milligrams/liter (ppm)
Percent Mortality [2, 9]: 0%
Percent Mortality [2, 10]: 0%
Percent Mortality [2, 11]: 0%
Percent Mortality [2, 12]: 0%
Percent Mortality [2, 13]: 0%
Percent Mortality [2, 14]: 100%
LC50 ([2]; 48 hours): 0.45 milligrams/liter (ppm)
Percent Mortality [2, 15]: 0%
Percent Mortality [2, 16]: 0%
Percent Mortality [2, 17]: 0%
Percent Mortality [2, 18]: 0%
Percent Mortality [2, 19]: 90%
Percent Mortality [2, 20]: 100%
LC50 ([2]; 96 hours): 0.24 milligrams/liter (ppm)
Percent Mortality [2, 21]: 0%
Percent Mortality [2, 22]: 0%
Percent Mortality [2, 23]: 0%
Percent Mortality [2, 24]: 100%
Percent Mortality [2, 25]: 100%
Percent Mortality [2, 26]: 100%
LC90 (lethal concentration for 90% of the insects) [3]: 0.005 ppm
times more toxic than avermectin Bla/Blb (LC90) [3]: 1166 times
Percent Mortality (Daphnia magna; 24 hr, nominal concentration 1.0 microgram/l): 0%
Percent Mortality (Daphnia magna; 24 hr, nominal concentration 1.8 microgram/l): 0%
Percent Mortality (Daphnia magna; 24 hr, nominal concentration 3.2 microgram/l): 20%
Percent Mortality (Daphnia magna; 24 hr, nominal concentration 5.6 microgram/l): 30%
Percent Mortality (Daphnia magna; 24 hr, nominal concentration 10.0 microgram/l): 90%
times less toxic than the 4"-amino compound (Daphnia magna; 48 hour LC50, vs 4"-deoxy-4"-amino avermectin Bla/Blb): ~5 times
times less toxic than the avermectin Bla/Blb compound (Daphnia magna; 48 hour LC50, vs avermectin Bla/Blb): ~10 times
LC50 (Daphnia magna; [27]): 2900 ppt
LC50 (Daphnia magna; 48 hours): 2.9 micrograms/l
Percent Mortality (Daphnia magna; 48 hr, nominal concentration 1.0 microgram/l): 0%
Percent Mortality (Daphnia magna; 48 hr, nominal concentration 1.8 microgram/l): 5%
Percent Mortality (Daphnia magna; 48 hr, nominal concentration 3.2 microgram/l): 70%
Percent Mortality (Daphnia magna; 48 hr, nominal concentration 5.6 microgram/l): 95%
Percent Mortality (Daphnia magna; 48 hr, nominal concentration 10.0 microgram/l): 100%
LC90 (Heliothis zea larvae [4]): 0.002 ppm
times more toxic than avermectin Bla/Blb (LC90) (Heliothis zea larvae [4]): 105 times
mortality ([5]; 0.1 microgram/g body weight): 25%
mortality ([5]; 0.4 microgram/g body weight): 100%
times more toxic than 4"-deoxy-4"-epiamino avermectin Bla/Blb [6]: 4 times
LD90 (Lethal Dose for 90% of the insects) (southern armyworm): 0.542 micrograms/GWT
mortality (Heliothis zea larvae [7]; [28]): 20%
mortality (Heliothis zea larvae [7]; 0.4 microgram/g body weight): 100%
mortality (Heliothis zea larvae [7]; 4.0 microgram/gram body weight): 100%
LC50 ([8]; 24 hours): > 1.0 milligrams/liter (ppm)
Percent Mortality [8, 9]: 0%
Percent Mortality [8, 10]: 0%
Percent Mortality [8, 11]: 0%
Percent Mortality [8, 12]: 0%
Percent Mortality [8, 13]: 0%
Percent Mortality [8, 14]: 0%
LC50 ([8]; 48 hours): > 1.0 milligrams/liter (ppm)
Percent Mortality [8, 15]: 0%
Percent Mortality [8, 16]: 0%
Percent Mortality [8, 17]: 0%
Percent Mortality [8, 18]: 0%
Percent Mortality [8, 19]: 0%
Percent Mortality [8, 20]: 0%
LC50 ([8]; 96 hours): 0.67 milligrams/liter (ppm)
Percent Mortality [8, 21]: 0%
Percent Mortality [8, 22]: 0%
Percent Mortality [8, 23]: 0%
Percent Mortality [8, 24]: 0%
Percent Mortality [8, 25]: 20%
Percent Mortality [8, 26]: 100%

4"-deoxy-4"-amino avermectin Bla/Blb [reference compound]
LD90 (Lethal Dose for 90% of the insects) (tobacco budworm): 1.3 micrograms/GWT
LC50 (Daphnia magna; [27]): 600 ppt
LC50 (Daphnia magna; 48 hours): 0.6 micrograms/l
LD90 (Lethal Dose for 90% of the insects) (southern armyworm): 3.4 micrograms/GWT

avermectin Bla/Blb [reference compound]
LD90 (Lethal Dose for 90% of the insects) (tobacco budworm): > 1.3 micrograms/GWT
LC90 [1]: 0.128 ppm
LC50 ([2]; 24 hours): 0.029 milligrams/liter (ppm)
LC50 ([2]; 48 hours): 0.019 milligrams/liter (ppm)
LC50 ([2]; 96 hours): 0.0096 milligrams/liter (ppm)
LC90 (lethal concentration for 90% of the insects) [3]: 5.83 ppm
LC50 (Daphnia magna; [27]): 300 ppt
LC50 (Daphnia magna; 48 hours): 0.34 micrograms/l
LC90 (Heliothis zea larvae [4]): 0.21 ppm
LD90 (Lethal Dose for 90% of the insects) (southern armyworm): > 34.0 micrograms/GWT
LC50 ([8]; 24 hours): > 0.006 milligrams/liter (ppm)
LC50 ([8]; 48 hours): 0.0046 milligrams/liter (ppm)
LC50 ([8]; 96 hours): 0.0032 milligrams/liter (ppm)

4"-deoxy-4"-epiamino avermectin Bla/Blb [reference compound]
mortality ([5]; 0.1 microgram/g body weight): 5%
mortality ([5]; 0.4 microgram/g body weight): 30%
mortality (Heliothis zea larvae [7]; [28]): 0%
mortality (Heliothis zea larvae [7]; 0.4 microgram/g body weight): 90%
mortality (Heliothis zea larvae [7]; 4.0 microgram/gram body weight): 100%
